Laboratory results published in patent US20240158446A1, “CYCLIC COMPOUND HAVING SELECTIVE INHIBITORY ACTION ON KRAS OVER HRAS AND NRAS” (CHUGAI SEIYAKU KABUSHIKI KAISHA, priority 2021, published 2024).

Experiments:
[1] = target: GDP-bound KRAS wild-type protein (Homo sapiens, UniProt P01116); test: Binding to KRAS by surface plasmon resonance (SPR), Single Cycle Kinetics; conditions: SPR, Single Cycle Kinetics, GDP-bound KRAS wild-type protein; read-out: KRAS KD
[2] = target: GDP-bound NRAS wild-type protein (Homo sapiens, UniProt P01111); test: Binding to NRAS by surface plasmon resonance (SPR), Single Cycle Kinetics; conditions: SPR; for NRAS/KRAS (ratio of KD value for NRAS to KD value for KRAS): GDP-bound NRAS wild-type protein vs GDP-bound KRAS wild-type protein
Chain of GDP-bound NRAS wild-type protein (P01111 whole entry): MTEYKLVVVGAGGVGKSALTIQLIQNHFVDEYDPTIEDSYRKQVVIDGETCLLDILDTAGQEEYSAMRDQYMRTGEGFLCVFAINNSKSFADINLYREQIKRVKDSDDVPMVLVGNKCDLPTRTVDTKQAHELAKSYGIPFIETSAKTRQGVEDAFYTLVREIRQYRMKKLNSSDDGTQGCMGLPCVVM

[3] = target: GDP-bound HRAS wild-type protein (Homo sapiens, UniProt P01112); test: Binding to HRAS by surface plasmon resonance (SPR), Single Cycle Kinetics; conditions: SPR; for HRAS/KRAS (ratio of KD value for HRAS to KD value for KRAS): GDP-bound HRAS wild-type protein vs GDP-bound KRAS wild-type protein
Chain of GDP-bound HRAS wild-type protein (P01112 whole entry): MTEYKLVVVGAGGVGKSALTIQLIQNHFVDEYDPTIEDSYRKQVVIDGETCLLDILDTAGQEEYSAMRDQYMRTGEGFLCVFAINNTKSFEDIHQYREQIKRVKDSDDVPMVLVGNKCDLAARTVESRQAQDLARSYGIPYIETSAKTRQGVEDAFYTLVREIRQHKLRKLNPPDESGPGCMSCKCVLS

[4] = tested on: human lung cancer strain NCI-H441; conditions: read-out: NCI-H441 cell proliferation inhibitory activity, 50% proliferation inhibitory concentration (IC50 value); NCI-H441, four days, CellTiter-Glo;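 further: cell proliferation inhibition after four days measured by CellTiter-Glo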

Chain of GDP-bound KRAS wild-type protein (P01116 whole entry): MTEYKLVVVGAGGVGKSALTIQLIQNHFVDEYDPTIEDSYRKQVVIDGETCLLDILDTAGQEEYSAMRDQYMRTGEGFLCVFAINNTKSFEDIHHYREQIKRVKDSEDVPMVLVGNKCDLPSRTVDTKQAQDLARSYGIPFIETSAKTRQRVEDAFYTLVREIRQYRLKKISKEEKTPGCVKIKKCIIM

SMILES	Kd [1]	NRAS/KRAS (ratio of KD value for NRAS to KD value for KRAS) [2]	ratio of the KD value with respect to GDP-bound NRAS wild-type protein to the KD value with respect to KRAS [2]	HRAS/KRAS (ratio of KD value for HRAS to KD value for KRAS) [3]	ratio of the KD value with respect to GDP-bound HRAS wild-type protein to the KD value with respect to KRAS [3]	IC50 [4]
CCCO[C@@H]1C[C@H]2C(=O)NC3(CC(C)(C)C3)C(=O)N(C)[C@@H](C3CCCC3)C(=O)N(C)[C@H](C(=O)N(C)CC)CC(=O)N(C)[C@H]3CCCc4ccc(cc4)C[C@@H](C(=O)N(C)CC(=O)N[C@@H](CCc4ccc(Cl)c(Cl)c4)C(=O)N2C1)N1CC/C=C\C[C@@H](C1=O)N(C)C(=O)CN(C)C(=O)[C@H]([C@@H](C)CC)NC3=O [PP3089]	0.33 nM	B (a compound having 3 or more and less than 10 is denoted as B)	B (a compound having 3 or more and less than 10 is denoted as B)	B (a compound having 3 or more and less than 10 is denoted as B)	B (a compound having 3 or more and less than 10 is denoted as B)	27 nM
CCO[C@@H]1C[C@H]2C(=O)N(C)C3(CC(C)(C)C3)C(=O)N(C)[C@@H](C3CCCC3)C(=O)N(C)[C@H](C(=O)N(C)C)CC(=O)N(C)[C@H]3CCCCCCc4ccc(cc4)C[C@@H](C(=O)N(C)CC(=O)N[C@@H](CCc4ccc(C(F)(F)F)c(OC)c4)C(=O)N2C1)N1CC/C=C\C[C@@H](C1=O)N(C)C(=O)CN(C)C(=O)[C@H]([C@@H](C)CC)NC3=O [PP3090]	0.033 nM	A (a compound having 10 or more and less than 20 is denoted as A)	A (a compound having 10 or more and less than 20 is denoted as A)	B (a compound having 3 or more and less than 10 is denoted as B)	B (a compound having 3 or more and less than 10 is denoted as B)	1.3 nM
CCCO[C@@H]1C[C@H]2C(=O)NC3(CC(C)(C)C3)C(=O)N(C)[C@@H](C3CCCC3)C(=O)N(C)[C@H](C(=O)N(C)C)CC(=O)N(C)[C@H]3CCCCc4ccc(cc4)C[C@@H](C(=O)N(C)CC(=O)N[C@@H](CCc4ccc(Cl)c(Cl)c4)C(=O)N2C1)N1CC/C=C\C[C@@H](C1=O)N(C)C(=O)CN(C)C(=O)[C@H]([C@@H](C)CC)NC3=O [PP3092]	0.09 nM	A (a compound having 10 or more and less than 20 is denoted as A)	A (a compound having 10 or more and less than 20 is denoted as A)	A (a compound having 10 or more and less than 20 is denoted as A)	A (a compound having 10 or more and less than 20 is denoted as A)	7.4 nM
